Data on nine compounds can be found in paper PMC9377253, “Antiproliferative and cytotoxic effects of sesquiterpene lactones isolated from Ambrosia artemisiifolia on human adenocarcinoma and normal cell lines” (Pharmaceutical Biology, 2022).

In one series the test system is NF-κB. Further details: method as in Sotillo et al. [2017]. To be noted: ref Sotillo et al. [2017]; cited from earlier work.
In series [1] the test system is breast cancer cell lines (MCF-7, JIMT-1 and HCC1937). Further details: method as in Sotillo et al. [2017]. To be noted: ref Sotillo et al. [2017]; cited from earlier work.
For series [2], the system named is MRC-5 human embryonal lung fibroblast cell line. Description: MTT antiproliferative assay (72 h), MRC-5. Format: cell-based. The method, then: (§1) MRC-5 human embryonal lung fibroblast cell lines (ATCC CCL-171) were purchased from LGC Promochem, Teddington, UK. The cell line was cultured in Eagle’s Minimal Essential Medium (EMEM, containing 4.5 g/L glucose) supplemented with a non-essential amino acid mixture, a selection of vitamins and 10% heat-inactivated foetal bovine serum. The cell lines were incubated at 37 °C, in a 5% CO2, 95% air atmosphere.
(§2) MRC-5 non-cancerous human embryonic lung fibroblast and human colonic adenocarcinoma cell lines (doxorubicin-sensitive Colo 205 and multidrug-resistant Colo 320 colonic adenocarcinoma cells) were used to determine the effect of compounds on cell proliferation and growth. The effects of increasing concentrations of compounds on cell proliferation and growth were tested in 96-well flat-bottomed microtitre plates. The compounds were diluted in a volume of 100 μL of medium.
(§3) The adherent human embryonal lung fibroblast cells were seeded overnight and cultured in 96-well flat-bottomed microtitre plates prior to the assay, using EMEM supplemented with 10% heat-inactivated foetal bovine serum. The density of the cells was adjusted to 6 × 10^3 cells (antiproliferative assay) or 1 × 10^4 cells (cytotoxicity assay) in 100 μL per well, the cells were seeded for 24 h at 37 °C, 5% CO2, then the medium was removed from the plates containing the cells, and the dilutions of compounds (200 µL) previously made in a separate plate were added to the cells in.
(§4) The culture plates were incubated at 37 °C for 72 h (antiproliferative test) or 24 h (cytotoxicity test); at the end of the incubation period, 20 μL of MTT (thiazolyl blue tetrazolium bromide, Sigma, St. Louis, MO, USA) solution (from a stock solution of 5 mg/mL) were added to each well. After incubation at 37 °C for 4 h, 100 μL of sodium dodecyl sulphate (SDS) (Sigma) solution (10% in 0.01 M HCI) were added to each well and the plates were further incubated at 37 °C overnight. Cell growth was determined by measuring the optical density (OD) at 540/630 nm with Multiscan EX ELISA reader (Thermo Labsystems, Cheshire, WA, USA). Inhibition of the cell growth was determined according to the formula below: Inhibition %=100−[OD sample−OD medium control/OD cell control−OD medium control]×100
(§5) Results are expressed in terms of IC50, defined as the inhibitory dose that reduces the growth of the cells exposed to the tested compounds by 50%.
In general terms: Tetrazolium dyes change colour on reduction, which living cells bring about.

The test system of series [3] is doxorubicin-sensitive Colo 205 colonic adenocarcinoma cells. Description: MTT antiproliferative assay (72 h), Colo 205. Format: cell-based, human. The following applies: read-out: Antiproliferative IC50, Colo205. The method, then: (§6) Human colonic adenocarcinoma cell lines (Colo 205 doxorubicin-sensitive and Colo 320/MDR-LRP multidrug-resistant expressing ABCB1 (MDR1)-LRP), ATCC-CCL-220.1 (Colo 320) and CCL-222 (Colo 205) were purchased from LGC Promochem, Teddington, UK. The cells were cultured in RPMI 1640 medium supplemented with 10% heat-inactivated foetal bovine serum, 2 mM L-glutamine, 1 mM Na-pyruvate and 100 mM Hepes. The cell lines were incubated at 37 °C, in a 5% CO2, 95% air atmosphere. The semi-adherent human colon cancer cells were detached with Trypsin-Versene (EDTA) solution for 5 min at 37 °C.
as §2
(§7) In case of the colonic adenocarcinoma cells, the 2-fold serial dilutions of compounds were prepared in 100 μL of RPMI 1640, horizontally. The semi-adherent colonic adenocarcinoma cells were treated with Trypsin-Versene (EDTA) solution. The density of the cells was adjusted to 6 × 10^3 cells (antiproliferative assay) or 1 × 10^4 cells (cytotoxicity assay) in 100 μL of RPMI 1640 medium, and was added to each well, with the exception of the medium control wells. The final volume of the wells containing compounds and cells was 200 μL.
as §4, §5

The test system of series [4] is multidrug-resistant Colo 320 colonic adenocarcinoma cells. As to the kind of experiment: MTT antiproliferative assay (72 h), Colo 320. Format: cell-based, human. The following applies: for IC50: MTT, 72 h incubation, read-out: Antiproliferative IC50, Colo320. As for the experimental part:
as §6, §2, §7, §4, §5

Series [5] is described as follows: MTT cytotoxicity assay (24 h), MRC-5. The class given is cell-based. The following applies: human, MRC-5 embryonal lung fibroblast cells, 24 h incubation. As for the experimental part:
as §1, §2, §3, §4, §5

Series [6] concerns doxorubicin-sensitive Colo 205 colonic adenocarcinoma cells. As to the kind of experiment: MTT cytotoxicity assay (24 h), Colo 205. The class given is cell-based, human. The following applies: Homo sapiens, COLO 205; MTT, 24 h incubation; read-out: Cytotoxicity IC50, Colo205. As for the experimental part: as §6, §2, §7, §4, §5
In series [7] the test system is multidrug-resistant Colo 320 colonic adenocarcinoma cells. Description: MTT cytotoxicity assay (24 h), Colo 320. Format: cell-based. The following applies: Homo sapiens, COLO 320, 24 h, 24 h incubation, read-out: Cytotoxicity IC50, Colo320. The method, then: as §6, §2, §7, §4, §5
For series [8], the system named is multidrug-resistant Colo 320 colonic adenocarcinoma cells expressing the ABCB1 transporter. Description: Checkerboard combination assay with doxorubicin. Format: cell-based, human. To be noted: for drug interaction with doxorubicin: Colo320, at certain concentrations. The method, then:
A checkerboard microplate method was applied to study the effect of drug interactions between the compounds and doxorubicin. The assay was carried out using multidrug-resistant Colo 320 colonic adenocarcinoma cells expressing the ABCB1 transporter. The final concentration of the chemotherapeutic agent doxorubicin used in the combination experiment was chosen in accordance with their antiproliferative activity previously determined. The dilutions of the chemotherapeutic drug were made in a horizontal direction in 100 μL, and the dilutions of the compounds vertically in the microtitre plate in 50 μL volume. The cells were re-suspended in culture medium and distributed into each well in 50 μL containing 6 × 10^3 cells each. The plates were incubated for 72 h at 37 °C in 5% CO2 atmosphere. The cell growth rate was determined after MTT staining. At the end of the incubation period, 20 μL of MTT (thiazolyl blue tetrazolium bromide, Sigma) solution (from a stock solution of 5 mg/mL) was added to each well. After incubation at 37 °C for 4 h, 100 μL of SDS (Sigma-Aldrich, St. Louis, MO, USA) solution (10% in 0.01 M HCl; Merck, Darmstadt, Germany) were added to each well and the plates were further incubated at 37 °C overnight. OD was measured at 540/630 nm with Multiscan EX ELISA reader (Thermo Labsystems, Cheshire, WA). Combination index (CI) values at 50% of the growth inhibition dose (ED50), were determined using CompuSyn software (ComboSyn, Inc., Paramus, NJ) to plot four to five data points to each ratio.

Where [9] appears, read: Homo sapiens, MRC5, 72 h incubation.
Setting [10] is: Homo sapiens, COLO 205, 72 h incubation.

On to `C=C1C(=O)O[C@@H]2[C@H]1CC[C@H](C)[C@@H]1C=CC(=O)[C@@]21C` [ambrosin], for which, in the series on NF-κB, the “TNF-α-induced translocation of NF-κB” value is on record as “inhibited”. Moreover, the “cytotoxicity to breast cancer cell lines” value in series [1] is reported as “cytotoxic”.

What is called IC50 is the concentration at which inhibition is half-maximal. For `COc1cccc2c1C(=O)c1c(O)c3c(c(O)c1C2=O)C[C@@](O)(C(=O)CO)C[C@@H]3O[C@H]1C[C@H](N)[C@H](O)[C@H](C)O1` [Doxorubicin, doxorubicin, reference compound], the IC50 in series [2] (setting [9]) amounted to 0.53 ± 0.06 µM; in series [3] (setting [10]), 0.24 ± 0.03 µM; in series [4] (Homo sapiens, COLO 320, 72 h), 0.14 ± 0.03 µM.

Regarding `C=C1C(=O)O[C@@H]2[C@H]1CCC(C)=C(CCC(=O)OC)[C@@]2(C)O` [Compound 5, 1′-noraltamisin], the IC50 at 24 h in series [5] is more than 100 µM. Also, the IC50 in series [6] was more than 100 µM; in series [7], more than 100 µM; in series [2] (setting [9]), more than 100 µM; in series [3] (setting [10]), more than 100 µM; in series [4] (listed as 1′-Noraltamisin) it was 8.78 µM; in [4], more than 100 µM. In addition, the Type of interaction entry in [8] (starting concentration 30 µM, ratio 3.48:1) is “Antagonism”; in series [8] (starting concentration 30 µM, ratio 6.69:1), “Additive effect”; in [8] (starting concentration 30 µM, ratio 13.92:1) it was “Slight synergism”; in [8] (starting concentration 30 µM, ratio 27.84:1), “Additive effect”; in [8] (starting concentration 30 µM, ratio 55.68:1), “Moderate antagonism”; in [8] (starting concentration 30 µM, ratio 111.36:1) it was “Additive effect”.

`C=C1C(=O)O[C@@H]2[C@H]1CCC(C)=C1CCC(=O)O[C@]12C` [Compound 6, psilostachyin B]: the figures for the IC50 in series [2] (72 h incubation), in [3] (72 h incubation) and in series [4] were 26.4 ± 0.81 µM, 11 ± 0.56 µM and 5.29 ± 0.15 µM, respectively. In addition, the “selectivity index (SI), antiproliferative” value in series [4] (Colo320 versus MRC-5, cell proliferation inhibition) turned out to be 4.98. Further, the Type of interaction entry in series [8] (starting concentration 100 µM, ratio 11.6:1) is reported as “Syn”; in series [8] (starting concentration 100 µM, ratio 23.2:1), “Syn”; in series [8] (starting concentration 100 µM, ratio 46.4:1) it was “Antagonism”; in [8] (starting concentration 100 µM, ratio 92.8:1), “Slight antagonism”; in series [8] (starting concentration 100 µM, ratio 185.6:1), “Moderate ant”; in series [8] (starting concentration 100 µM, ratio 371.2:1) it was “Antagonism”.

Regarding `C=C1C(=O)O[C@@H]2C[C@H](C)[C@]3(O)CCC(=O)[C@@]3(C)C[C@H]12` [Compound 3, peruvin], it took 11.9 ± 1.45 µM to reach half-maximal inhibition in series [5] (IC50 at 24 h). The IC50 is 64.4 ± 1.78 µM in [6]; 82.4 ± 1.17 µM in series [7]; 26.4 ± 1.3 µM in series [2] (setting [9]); 26.4 ± 1.12 µM in series [3] (setting [10]); 21.2 ± 0.72 µM in series [4] (Homo sapiens, COLO 320, 72 h). Besides, the Type of interaction result is given as “Moderate antagonism” in series [8] (starting concentration 65 µM, ratio 7.54:1); “Antagonism” in series [8] (starting concentration 65 µM, ratio 15.08:1); “Antagonism” in series [8] (starting concentration 65 µM, ratio 30.16:1); “Moderate antagonism” in [8] (starting concentration 65 µM, ratio 60.32.1); “Antagonism” in series [8] (starting concentration 65 µM, ratio 120.64:1); “Additive effect” in series [8] (starting concentration 65 µM, ratio 241.28:1).

`C=C1C(=O)O[C@@H]2[C@H]1CC[C@H](C)[C@@H]1CCC(=O)[C@@]21C` [damsin]: the “TNF-α-induced translocation of NF-κB” value in the series with NF-κB is “inhibited”. The “cytotoxicity to breast cancer cell lines” value in series [1] was “cytotoxic”.

Take `C=C1C(=O)O[C@@H]2[C@H]1CC[C@H](C)[C@]1(O)CCC(=O)[C@@]21C` [coronopilin]: the “TNF-α-induced translocation of NF-κB” value in the series with NF-κB was “inhibited”. In addition, in series [1], the “cytotoxicity to breast cancer cell lines” value is “cytotoxic”.

With `C=C1C(=O)O[C@@H]2[C@H]1CC[C@H](C)[C@H](CCC(=O)OC)[C@@]2(C)O` [Compound 7, 1,10-dihydro-1′-noraltamisin], the IC50 at 24 h in series [5] is more than 100 µM. For the same compound, the IC50 in [6] turned out to be 53.6 ± 0.87 µM; in series [7], 86.6 ± 1.06 µM; in [2] (setting [9]), 39.8 ± 0.53 µM; in series [3] (setting [10]), 17 ± 1.99 µM; in series [4] (Homo sapiens, COLO 320, 72 h), 34.5 ± 2.07 µM. Moreover, in [8], the “drug interaction with doxorubicin” value is on record as “synergistic effects”. Moreover, the Type of interaction result is “Very strong syn” in [8] (starting concentration 150 µM, ratio 17.42:1); “Moderate syn” in [8] (starting concentration 150 µM, ratio 34.84:1); “Moderate syn” in [8] (starting concentration 150 µM, ratio 69.68:1); “Moderate syn” in [8] (starting concentration 150 µM, ratio 139.36:1); “Moderate syn” in series [8] (starting concentration 150 µM, ratio 278.72:1); “Syn” in [8] (starting concentration 150 µM, ratio 557.44:1).

`COc1c(O)cc2oc(-c3ccc(O)c(O)c3)c(OC)c(=O)c2c1O` [Compound 8, axillarin] registered an IC50 at 24 h in series [5] of more than 100 µM. For the same compound, the IC50 is more than 100 µM in series [6]; more than 100 µM in [7]; 4.03 ± 0.56 µM in series [2] (setting [9]); 66.8 ± 0.96 µM in series [3] (setting [10]); 50.4 ± 2.98 µM in [4] (Homo sapiens, COLO 320, 72 h). The “drug interaction with doxorubicin” value in series [8] is “synergistic effects”.
